Measurements from ChEMBL document CHEMBL5370592, “Synthesis and Structure-Activity Relationships of a New Class of Oxadiazoles Targeting DprE1 as Antitubercular Agents” (ACS Med Chem Lett, 2023).
≈ marks a conversion by molar mass, not a printed value.

How the values were obtained:
[1] = system: Mycobacterium tuberculosis; experiment: Antitubercular activity against Mycobacterium tuberculosis H37Rv ATCC 27294 assessed as inhibition of bacterial growth cultured in Middlebrook 7H9/BSA/Tyloxapol with glucose medium for 2 weeks; format: functional; details: H37Rv ATCC 27294, 336 h
[2] = system: Mycobacterium tuberculosis; experiment: Antitubercular activity against Mycobacterium tuberculosis H37Rv ATCC 27294 assessed as inhibition of bacterial growth cultured in Middlebrook 7H9/glucose/casitone/tyloxapol medium for 2 weeks; format: functional; details: H37Rv ATCC 27294, 336 h
[3] = Cytotoxicity against human HepG2 cells assessed as reduction in cell viability incubated for 24 hrs in DMEM/10% FBS supplemented with glucose by CellTiter-Glo luminescent assay; format: toxicity, cell-based
[4] = Cytotoxicity against human HepG2 cells assessed as reduction in cell viability incubated for 24 hrs in DMEM/10% FBS supplemented with galactose by CellTiter-Glo luminescent assay; format: toxicity, cell-based

Compound | MIC [1] [µM] | MIC [2] [µM] | IC50 at 24 h [3] [µM] | IC50 at 24 h [4] [µM]
O=C(C1CCN(c2nnc(-c3ccccc3)o2)CC1)N1CCC(Oc2ccccc2)CC1 | 4.7 (≈ 2.03 µg/mL) | 2.3 (≈ 0.995 µg/mL) | 37.5 | 37.5
O=C(C1CCN(c2nnc(-c3ccccc3)o2)CC1)N1CCC(C(F)(F)F)CC1 | 1.56 (≈ 0.637 µg/mL) | 0.2 (≈ 0.0817 µg/mL) | > 50 | > 50
O=C(C1CCN(c2nnc(-c3ccccc3)o2)CC1)N1CCC(c2ccccc2)CC1 | 4.7 (≈ 1.96 µg/mL) | 2.3 (≈ 0.958 µg/mL) | > 50 | 37.5
O=C(C1CCN(c2nnc(-c3ccncc3)o2)CC1)N1CCC(Cc2ccccc2)CC1 | 1.2 (≈ 0.518 µg/mL) | 0.39 (≈ 0.168 µg/mL) | > 50 | 37.5
CN1CCN(C(=O)C2CCN(c3nnc(-c4ccccc4)o3)CC2)CC1 | > 50 | > 50 | > 50 | > 50
O=C(C1CCN(c2nnc(-c3ccc(C(F)(F)F)cc3)o2)CC1)N1CCC(Cc2ccccc2)CC1 | > 50 | > 50 | > 50 | > 50
CC(C)C1CCN(C(=O)C2CCN(c3nnc(-c4ccccc4)o3)CC2)CC1 | 4.7 (≈ 1.8 µg/mL) | 2.3 (≈ 0.88 µg/mL) | > 50 | > 50
O=C(C1CCN(c2nnc(-c3ccccc3)o2)CC1)N1CCC(Cc2ccc(C(F)(F)F)cc2)CC1 | 0.3 (≈ 0.15 µg/mL) | 0.1 (≈ 0.0499 µg/mL) | > 50 | 37.5
O=S(=O)(C1CCN(c2nnc(-c3ccccc3)o2)CC1)N1CCC(Cc2ccccc2)CC1 | > 50 | 12.5 (≈ 5.83 µg/mL) | > 50 | 37.5
O=C(C1CCN(c2noc(-c3ccccc3)n2)CC1)N1CCC(Cc2ccccc2)CC1 | 1.2 (≈ 0.517 µg/mL) | 0.3 (≈ 0.129 µg/mL) | > 50 | 37.5
O=C(C1CCN(c2nnc(-c3ccccc3)o2)C1)N1CCC(Cc2ccccc2)CC1 (stereo unspecified) | 50 (≈ 20.8 µg/mL) | 6.3 (≈ 2.62 µg/mL) | > 50 | > 50
O=C(C1CCN(c2nnc(-c3ccccc3)o2)CC1)N1CCc2ccccc2C1 | 50 (≈ 19.4 µg/mL) | 37 (≈ 14.4 µg/mL) | > 50 | > 50
O=C(C1CCN(c2nnc(-c3ccc(F)cc3)o2)CC1)N1CCC(Cc2ccccc2)CC1 | 1.2 (≈ 0.538 µg/mL) | 0.15 (≈ 0.0673 µg/mL) | > 50 | > 50
CC(C)(C)C1CCN(C(=O)C2CCN(c3nnc(-c4ccccc4)o3)CC2)CC1 | 4.7 (≈ 1.86 µg/mL) | 1.2 (≈ 0.476 µg/mL) | > 50 | > 50
CC(c1ccccc1)C1CCN(C(=O)C2CCN(c3nnc(-c4ccccc4)o3)CC2)CC1 (stereo unspecified) | 1.56 (≈ 0.694 µg/mL) | 0.2 (≈ 0.0889 µg/mL) | > 50 | > 50
O=C(C1CCCN(c2nnc(-c3ccccc3)o2)C1)N1CCC(Cc2ccccc2)CC1 (stereo unspecified) | 50 (≈ 21.5 µg/mL) | 25 (≈ 10.8 µg/mL) | > 50 | 37.5
O=C(C1CCN(c2nnc(-c3ccccc3)o2)CC1)N1CCC(Cc2ccccc2)C1 (stereo unspecified) | 9.4 (≈ 3.92 µg/mL) | 6.25 (≈ 2.6 µg/mL) | > 50 | 37.5
CCCCCC[C@H]1C(=O)O[C@H](C)[C@H](NC(=O)c2cccc(NC=O)c2O)C(=O)O[C@@H](C)[C@@H]1OC(=O)CC(C)C [ANTIMYCIN A] |  |  | > 250 | 0.12
O=C(C1CCN(c2nnc(-c3ccccc3)o2)CC1)N1CCCCC1 | > 50 | > 50 | > 50 | > 50
O=C(C1CCN(c2nnc(-c3ccccc3)o2)CC1)N1CCCC(Cc2ccccc2)C1 (stereo unspecified) | 50 (≈ 21.5 µg/mL) | 25 (≈ 10.8 µg/mL) | > 50 | 37.5
O=C(c1ccccc1)C1CCN(C(=O)C2CCN(c3nnc(-c4ccccc4)o3)CC2)CC1 | 9.4 (≈ 4.18 µg/mL) | 4.7 (≈ 2.09 µg/mL) | > 50 | 37.5
O=C(NC1CCC(Cc2ccccc2)CC1)C1CCN(c2nnc(-c3ccccc3)o2)CC1 (stereo unspecified) | > 50 | 4.7 (≈ 2.09 µg/mL) | > 50 | > 50
